Test [1] deals with T1, PCSK9 (Homo sapiens, UniProt Q8NBP7).
T1 construct: Biotinylated PCSK9 was obtained commercially; purchased
As to the kind of experiment: PCSK9 Alexa FRET Plus TR-FRET assay (displacement of AlexaFluor647 tagged cyclic peptide Reagent B). In kind it is binding. As to conditions: 0.5 nM biotinylated PCSK9, 960 nM AF cyclic peptide Reagent B, Ki calculated from IC50 and KD of AF peptide. On the procedure: (§1) The following is a description of the assays used to determine activity of compounds of the invention, and any comparator compounds reported, toward PCSK9 antagonism. Biotinylated PCSK9 was obtained commercially.
A solution containing 1 nM biotinylated PCSK9+2.5 nM Lance Streptavidin Europium (Strep-Eu) is made in 50 mM HEPES pH 7.4, 0.15 M NaCl, 5 mM CaCl2, 0.01% BSA, and 0.01% Surfactant P20. A separate solution containing 1920 nM of the AlexaFluor tagged cyclic peptide is made in the same buffer system. An Echo is used to transfer 0.075 ul of compound plus 0.675 ul of DMSO to each well of an assay plate followed by the addition of 15 ul of PCSK9+Stept-Eu and 15 ul of AF peptide. The final assay volume is 30.750 ul containing 0.5 nM PCSK9, 1.25 nM Strep-Eu, and 960 nM AF cyclic peptide. The reaction is incubated at room temperature for at least two hours prior to fluorescence measurements using an Envision Multilabel Reader. IC50 values are determined by fitting data to a sigmoidal dose-response curve using nonlinear regression. Ki is then calculated from the IC50 and the KD of AF cyclic peptide. Counts (B-counts) of the europium-labeled PCSK9 are followed to observe if compounds are adversely affecting PCSK9. A fall off of the B-counts is likely indicates a false positive of inhibition. Data from this procedure is reported as “P=‘numerical value’ (nanomolar)”
Activity data obtained by one or both of the above-described procedures is reported for selected example compounds of the invention in the following format: Example No.: A (standard TR Fret)=‘numerical value’; P (Alexa Fret plus standard TR Fret)=‘numerical value’/, note that all values reported are nanomolar.

Test [2] has as its target T1, PCSK9. As to the kind of experiment: PCSK9 Alexa FRET Ultra TR-FRET assay (displacement of AlexaFluor647 tagged cyclic peptide). In kind it is binding. As to conditions: 0.5 nM biotinylated PCSK9, 960 nM AF cyclic peptide, Ki calculated from IC50 and KD of AF peptide. On the procedure:
as §1
A solution containing 1 nM biotinylated PCSK9+2.5 nM Lance Streptavidin Europium (Strep-Eu) is made in 50 mM HEPES pH 7.4, 0.15 M NaCl, 5 mM CaCl2, 0.01% BSA, and 0.01% Surfactant P20. A separate solution containing 1920 nM of the AlexaFluor tagged cyclic peptide is made in the same buffer system. An Echo is used to transfer 0.015 ul of compound plus 0.735 ul of DMSO to each well of an assay plate followed by the addition of 15 ul of PCSK9+Stept-Eu and 15 ul of AF peptide. The final assay volume is 30.750 ul containing 0.5 nM PCSK9, 1.25 nM Strep-Eu, and 960 nM AF cyclic peptide. The reaction is incubated at room temperature for at least two hours prior to fluorescence measurements using an Envision Multilabel Reader. IC50 values are determined by fitting data to a sigmoidal dose-response curve using nonlinear regression. Ki is then calculated from the IC50 and the KD of AF cyclic peptide. Counts (B-counts) of the europium-labeled PCSK9 are followed to observe if compounds are adversely affecting PCSK9. A fall off of the B-counts is likely indicates a false positive of inhibition. Data from this procedure is reported as “Ki Ultra=‘numerical value’ (data reported is nanomolar)”

T1 sequence (Q8NBP7 153-692): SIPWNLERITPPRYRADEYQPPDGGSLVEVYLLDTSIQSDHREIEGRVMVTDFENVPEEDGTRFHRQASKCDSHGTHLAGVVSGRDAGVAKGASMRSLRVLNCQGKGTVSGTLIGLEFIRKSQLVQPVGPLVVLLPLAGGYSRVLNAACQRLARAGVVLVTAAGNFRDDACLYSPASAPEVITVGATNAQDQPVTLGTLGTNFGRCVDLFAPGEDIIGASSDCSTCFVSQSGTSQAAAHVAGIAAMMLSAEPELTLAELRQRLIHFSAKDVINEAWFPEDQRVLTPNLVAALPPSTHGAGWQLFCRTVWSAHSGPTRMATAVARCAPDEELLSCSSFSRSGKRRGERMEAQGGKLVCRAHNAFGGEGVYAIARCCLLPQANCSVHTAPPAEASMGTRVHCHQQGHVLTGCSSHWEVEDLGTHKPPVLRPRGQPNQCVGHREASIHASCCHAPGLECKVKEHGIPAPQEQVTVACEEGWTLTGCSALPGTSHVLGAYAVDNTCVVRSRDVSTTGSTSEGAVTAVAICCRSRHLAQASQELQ

Regarding `COc1ccc(C[C@@H]2NC(=O)[C@H]([C@@H](C)O)NC(=O)[C@@H]3C4CCN3C(=O)[C@@H]3Cc5cn(c6ccc(F)cc56)CCCCN(Cc5ccc(cc5)CCNC(=O)[C@]5(C)CCCN5C2=O)C(=O)CCCCCC(=O)N[C@H](CNC(=O)CCC(=O)NC2OC(CO)C(O)C(O)C2O)C(=O)N[C@@H](Cc2cccc(c2)CNC(=O)CO4)C(=O)N3)cc1` (some centres unmarked) [Ex-26], the figures for the Ki on PCSK9 [1] (read-out: Ki Plus) and at PCSK9 [2] (read-out: Ki Ultra) were no more than 5.58 pM and 2.75 pM, respectively.

As for `COc1ccc(C[C@@H]2NC(=O)[C@H]([C@@H](C)O)NC(=O)[C@@H]3[C@@H]4CCN3C(=O)[C@@H]3Cc5cn(c6ccc(F)cc56)CCCCN(Cc5ccc(cc5)CCNC(=O)[C@]5(C)CCCN5C2=O)C(=O)CCC(=O)N[C@@H](C)C(=O)N[C@H](CNC(=O)CCC(=O)NC2OC(CO)C(O)C(O)C2O)C(=O)N[C@@H](Cc2cccc(c2)CNC(=O)CO4)C(=O)N3)cc1` (some centres unmarked) [Ex-27], the inhibitory constant (Ki) – broadly, a dissociation constant, usually derived from enzyme kinetics or from competition with a known ligand – at PCSK9 [1] (read-out: Ki Plus) was 5.58 pM; on PCSK9 [2] (read-out: Ki Ultra), 3.01 pM.

As to `COc1ccc(C[C@@H]2NC(=O)[C@H]([C@@H](C)O)NC(=O)[C@@H]3[C@@H]4CCN3C(=O)[C@@H]3Cc5cn(c6ccc(F)cc56)C/C=C/CN(Cc5ccc(cc5)CCNC(=O)[C@]5(C)CCCN5C2=O)C(=O)CCC(=O)N[C@@H](C)C(=O)N[C@H](CNC(=O)CCOCCOCC[N+](C)(C)C)C(=O)N[C@@H](Cc2cccc(c2)CNC(=O)CO4)C(=O)N3)cc1` [Ex-29], the results for the Ki at PCSK9 [1] (read-out: Ki Plus) and on PCSK9 [2] (read-out: Ki Ultra) were 9.81 pM and 6.14 pM, respectively.

`COc1ccc(C[C@@H]2NC(=O)[C@H]([C@@H](C)O)NC(=O)[C@@H]3[C@@H]4CCN3C(=O)[C@@H]3Cc5cn(c6ccccc56)CCCCCCN(Cc5ccc(cc5)CCNC(=O)[C@]5(C)CCCN5C2=O)C(=O)CCC(=O)N[C@@H](C)C(=O)N[C@H](CNC(=O)CCCCC[N+](C)(C)C)C(=O)N[C@@H](Cc2cccc(c2)CNC(=O)CO4)C(=O)N3)cc1` [Ex-35]: the Ki at PCSK9 [1] (Ki Plus) is 46.5 pM; at PCSK9 [2] (Ki Ultra) it was 84.3 pM.

`COc1ccc(C[C@@H]2NC(=O)[C@H](C)NC(=O)[C@@H]3[C@@H]4CCN3C(=O)[C@@H]3Cc5cn(c6ccc(F)cc56)CCCCCCN(Cc5ccc(cc5)CCNC(=O)[C@]5(C)CCCN5C2=O)C(=O)CCC(=O)N[C@@H](C)C(=O)N[C@H](CNC(=O)CCCCC[N+](C)(C)C)C(=O)N[C@@H](Cc2cccc(c2)CNC(=O)CO4)C(=O)N3)cc1` [Ex-36]: the Ki was 7.62 pM on PCSK9 [1] (Ki Plus) and 5.07 pM on PCSK9 [2] (Ki Ultra).

On to `COc1ccc(C[C@@H]2NC(=O)[C@H]([C@@H](C)O)NC(=O)[C@@H]3[C@@H]4CCN3C(=O)[C@@H]3Cc5cn(c6ccc(F)cc56)CCCCC[C@@H](NC(=O)CCC(=O)N[C@@H](C)C(=O)N[C@H](CNC(=O)CCCCC[N+](C)(C)C)C(=O)N[C@@H](Cc5cccc(c5)CNC(=O)CO4)C(=O)N3)c3ccc(cc3)CCNC(=O)[C@]3(C)CCCN3C2=O)cc1` [Ex-38], for which the figures for the Ki at PCSK9 [1] (Ki Plus) and at PCSK9 [2] (Ki Ultra) were 9.04 pM and 14.2 pM, respectively.

As for `COc1ccc(C[C@@H]2NC(=O)[C@H]([C@@H](C)O)NC(=O)[C@@H]3[C@@H]4CCN3C(=O)[C@@H]3Cc5cn(c6ccc(F)cc56)CCCCCOCc5cc(ccc5CNC(=O)CCC(=O)N[C@@H](C)C(=O)N[C@H](CNC(=O)CCCCC[N+](C)(C)C)C(=O)N[C@@H](Cc5cccc(c5)CNC(=O)CO4)C(=O)N3)CCNC(=O)[C@]3(C)CCCN3C2=O)cc1` [Ex-39], the Ki on PCSK9 [1] (Ki Plus) was 7.16 pM; at PCSK9 [2] (Ki Ultra), 4.14 pM.

As to `COc1ccc(C[C@@H]2NC(=O)[C@H]([C@@H](C)O)NC(=O)[C@@H]3[C@@H]4CCN3C(=O)[C@@H]3Cc5cn(c6ccc(F)cc56)CCCCOc5cc(cc(c5)CNC(=O)CCC(=O)N[C@@H](C)C(=O)N[C@H](CNC(=O)CCCCC[N+](C)(C)C)C(=O)N[C@@H](Cc5cccc(c5)CNC(=O)CO4)C(=O)N3)CCNC(=O)[C@]3(C)CCCN3C2=O)cc1` [Ex-40], the Ki on PCSK9 [1] (Ki Plus) is 308 pM; on PCSK9 [2] (Ki Ultra), 860 pM.

On to `COc1ccc(C[C@@H]2NC(=O)[C@H]([C@@H](C)O)NC(=O)[C@@H]3[C@@H]4CCN3C(=O)[C@@H]3Cc5cn(c6ccc(F)cc56)CCCCCN(CCOc5ccc(cc5)CCNC(=O)[C@]5(C)CCCN5C2=O)C(=O)CCC(=O)N[C@@H](C)C(=O)N[C@H](CNC(=O)CCCCC[N+](C)(C)C)C(=O)N[C@@H](Cc2cccc(c2)CNC(=O)CO4)C(=O)N3)cc1` [Ex-41], for which the Ki on PCSK9 [1] (Ki Plus) is 6.97 pM; at PCSK9 [2] (Ki Ultra), 6.28 pM.

For the molecule `COc1ccc(C[C@@H]2NC(=O)[C@H]([C@@H](C)O)NC(=O)[C@@H]3[C@@H]4CCN3C(=O)[C@@H]3Cc5cn(c6ccc(F)cc56)CCCCCCN(Cc5cccc(c5)CCNC(=O)[C@]5(C)CCCN5C2=O)C(=O)CCC(=O)N[C@@H](C)C(=O)N[C@H](CNC(=O)CCCCC[N+](C)(C)C)C(=O)N[C@@H](Cc2cccc(c2)CNC(=O)CO4)C(=O)N3)cc1` [Ex-44], the Ki at PCSK9 [1] (Ki Plus) was 14.5 pM; on PCSK9 [2] (Ki Ultra), 21.9 pM.

Take `COc1ccc(C[C@@H]2NC(=O)[C@H]([C@@H](C)O)NC(=O)[C@@H]3[C@@H]4CCN3C(=O)[C@@H]3Cc5cn(c6ccc(F)cc56)C/C=C/CC[C@@H](NC(=O)CCC(=O)N[C@@H](C)C(=O)N[C@H](CNC(=O)CCCCC[N+](C)(C)C)C(=O)N[C@@H](Cc5cccc(c5)CNC(=O)CO4)C(=O)N3)c3ccc(cc3)CCNC(=O)[C@]3(C)CCCN3C2=O)cc1` [Ex-47]: the inhibitory constant (Ki) on PCSK9 [1] (Ki Plus) is 14.7 pM; at PCSK9 [2] (Ki Ultra), 11.9 pM.

Consider `COc1ccc(C[C@@H]2NC(=O)[C@H]([C@@H](C)O)NC(=O)[C@@H]3C4CCN3C(=O)[C@@H]3Cc5cn(c6ccc(F)cc56)CCCCC[C@@H](NC(=O)CCC(=O)N[C@@H](C)C(=O)N[C@H](CNC(=O)CCOCCOCC[N+](C)(C)C)C(=O)N[C@@H](Cc5cccc(c5)CNC(=O)CO4)C(=O)N3)c3ccc(cc3)CCNC(=O)[C@]3(C)CCCN3C2=O)cc1` [Ex-48], for which the values for the Ki on PCSK9 [1] (Ki Plus) and on PCSK9 [2] (Ki Ultra) were 11.7 pM and 15.4 pM, respectively.

On to `COc1ccc(C[C@@H]2NC(=O)[C@H]([C@@H](C)O)NC(=O)[C@@H]3[C@@H]4CCN3C(=O)[C@@H]3Cc5cn(c6ccc(F)cc56)CCCCOCc5cc(ccc5CNC(=O)CCC(=O)N[C@@H](C)C(=O)N[C@H](CNC(=O)CCCCC[N+](C)(C)C)C(=O)N[C@@H](Cc5cccc(c5)CNC(=O)CO4)C(=O)N3)CCNC(=O)[C@]3(C)CCCN3C2=O)cc1` [Ex-49], for which the Ki on PCSK9 [1] (Ki Plus) was 7.16 pM; on PCSK9 [2] (Ki Ultra) it was 4.14 pM.

Turning to `COc1ccc(C[C@@H]2NC(=O)[C@H]([C@@H](C)O)NC(=O)[C@@H]3[C@@H]4CCN3C(=O)[C@@H]3Cc5cn(c6ccc(F)cc56)CCCCCCN(Cc5ccc(cc5)CCNC(=O)[C@]5(C)CCCN5C2=O)C(=O)CCC(=O)N[C@@H](C)C(=O)N[C@H](CNC(=O)CCOCCCCC[N+](C)(C)C)C(=O)N[C@@H](Cc2cccc(c2)CNC(=O)CO4)C(=O)N3)cc1` [Ex-59], the results for the Ki on PCSK9 [1] (Ki Plus) and on PCSK9 [2] (Ki Ultra) were 7.88 pM and 4.96 pM, respectively.

For `COc1ccc(C[C@@H]2NC(=O)[C@H]([C@@H](C)O)NC(=O)[C@@H]3[C@@H]4CCN3C(=O)[C@@H]3Cc5cn(c6ccc(F)cc56)CCCCCCN(Cc5ccc(cc5)CCNC(=O)[C@]5(C)CCCN5C2=O)C(=O)CCC(=O)N[C@@H](C)C(=O)N[C@H](CNC(=O)CNC(=O)CCCCC[N+](C)(C)C)C(=O)N[C@@H](Cc2cccc(c2)CNC(=O)CO4)C(=O)N3)cc1` [Ex-60], the results for the Ki at PCSK9 [1] (Ki Plus) and on PCSK9 [2] (Ki Ultra) were 6.51 pM and 5.31 pM, respectively.

`COc1ccc(C[C@@H]2NC(=O)[C@H]([C@@H](C)O)NC(=O)[C@@H]3[C@@H]4CCN3C(=O)[C@@H]3Cc5cn(c6ccc(F)cc56)CCCCCCN(Cc5ccc(cc5)CCNC(=O)[C@]5(C)CCCN5C2=O)C(=O)CCC(=O)N[C@@H](C)C(=O)N[C@H](CNC(=O)CCCCCCCC[N+](C)(C)C)C(=O)N[C@@H](Cc2cccc(c2)CNC(=O)CO4)C(=O)N3)cc1` [Ex-61]: the results for the Ki on PCSK9 [1] (Ki Plus) and on PCSK9 [2] (Ki Ultra) were 7.47 pM and 6.54 pM, respectively.

Values taken from US12209145B2, “PCSK9 antagonist compounds” (Merck Sharp & Dohme LLC, priority 2018, dated 2025).
